Results as given in patent US9464084B2, “P2X7 modulators” (Janssen Pharmaceutica NV, priority 2013, dated 2016).

target: P2X7 (Homo sapiens (Human), UniProt Q99572); assay: P2X7 antagonism in human PBMCs (LPS + Bz-ATP induced IL-1β release, ELISA); assay type: cell-based; conditions: compound 1 μM, LPS 30 ng/ml, Bz-ATP 0.5 mM;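 note: PBMCs from donor human blood, with a further 1.5 h incubation of the cells in the assay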
Sequence (Q99572 whole entry): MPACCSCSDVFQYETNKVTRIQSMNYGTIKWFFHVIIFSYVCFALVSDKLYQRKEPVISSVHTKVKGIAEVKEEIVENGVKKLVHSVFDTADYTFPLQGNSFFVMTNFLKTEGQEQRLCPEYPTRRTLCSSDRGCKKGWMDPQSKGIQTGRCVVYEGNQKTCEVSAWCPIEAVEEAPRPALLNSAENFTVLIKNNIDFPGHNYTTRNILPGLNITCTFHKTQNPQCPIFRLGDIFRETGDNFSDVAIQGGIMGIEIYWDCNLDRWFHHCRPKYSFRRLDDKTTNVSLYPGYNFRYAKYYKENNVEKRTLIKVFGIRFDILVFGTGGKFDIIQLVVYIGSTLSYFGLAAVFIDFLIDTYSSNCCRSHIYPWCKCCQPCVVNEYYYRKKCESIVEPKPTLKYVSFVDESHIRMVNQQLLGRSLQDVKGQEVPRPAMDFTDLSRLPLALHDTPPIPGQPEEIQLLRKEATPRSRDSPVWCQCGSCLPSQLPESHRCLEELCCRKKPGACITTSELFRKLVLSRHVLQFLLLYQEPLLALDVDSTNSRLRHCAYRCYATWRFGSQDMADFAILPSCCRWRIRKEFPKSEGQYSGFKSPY

Compared with `O=C(c1cccc(C(F)(F)F)c1Cl)N1CCc2c(ncn2-c2ccccc2)C1CO` (stereo not shown) [Example 30, (5-{[2-Chloro-3-(trifluoromethyl)phenyl]carbonyl}-1-phenyl-4,5,6,7-tetrahydro-1H-imidazo[4,5-c]pyridin-4-yl)methanol], `O=C(O)C1c2ncn(-c3ccccn3)c2CCN1C(=O)c1cccc(C(F)(F)F)c1Cl` (stereo not shown) [Example 33, 5-{[2-Chloro-3-(trifluoromethyl)phenyl]carbonyl}-1-pyridin-2-yl-4,5,6,7-tetrahydro-1H-imidazo[4,5-c]pyridine-4-carboxylic acid] is higher in “PBMC 1 μM (% control)” value: 87.0 % control for the first, 100.7 % control for the second.

Compared with `O=C(c1cccc(C(F)(F)F)c1Cl)N1CCc2nc[nH]c2C1` [Example 48, 5-{[2-Chloro-3-(trifluoromethyl)phenyl]carbonyl}-4,5,6,7-tetrahydro-3H-imidazo[4,5-c]pyridine], `O=C(c1cccc(C(F)(F)F)c1Cl)N1CCc2c(nnn2-c2cnccn2)C1` [Example 91, 5-{[2-Chloro-3-(trifluoromethyl)phenyl]carbonyl}-1-pyrazin-2-yl-4,5,6,7-tetrahydro-1H-[1,2,3]triazolo[4,5-c]pyridine] is lower in “PBMC 1 μM (% control)” value: 90.1 % control for the first, 6.1 % control for the second.

Going from `O=C(c1cccc(C(F)(F)F)c1Cl)N1C=Cc2c(ncn2-c2ccccc2)C1` [Example 49, 5-{[2-Chloro-3-(trifluoromethyl)phenyl]carbonyl}-1-phenyl-4,5-dihydro-1H-imidazo[4,5-c]pyridine] to `O=C(c1cccc2c1OC(F)(F)O2)N1CCc2c(ncn2-c2ccccc2)C1` [Example 50, 5-[(2,2-Difluoro-1,3-benzodioxol-4-yl)carbonyl]-1-phenyl-4,5,6,7-tetrahydro-1H-imidazo[4,5-c]pyridine], the “PBMC 1 μM (% control)” value rises from 93.5 % control to 96.0 % control.

Going from `O=C(c1cccc2c1OCC2)N1CCc2c(ncn2-c2ccccc2)C1` [Example 51, 5-(2,3-Dihydro-1-benzofuran-7-ylcarbonyl)-1-phenyl-4,5,6,7-tetrahydro-1H-imidazo[4,5-c]pyridine] to `CC1(C)Cc2cccc(C(=O)N3CCc4c(ncn4-c4ccccc4)C3)c2O1` [Example 52, 5-[(2,2-Dimethyl-2,3-dihydro-1-benzofuran-7-yl)carbonyl]-1-phenyl-4,5,6,7-tetrahydro-1H-imidazo[4,5-c]pyridine], the “PBMC 1 μM (% control)” value rises from 97.6 % control to 98.9 % control.

First: CC1c2nnn(-c3cnccn3)c2CCN1C(=O)c1cccc(C(F)(F)F)c1Cl (stereo not shown) [Example 73, 5-{[2-Chloro-3-(trifluoromethyl)phenyl]carbonyl}-4-methyl-1-pyrazin-2-yl-4,5,6,7-tetrahydro-1H-[1,2,3]triazolo[4,5-c]pyridine]
Second: Cn1nc2c(c1-c1cccnc1)CCN(C(=O)c1cccc(C(F)(F)F)c1Cl)C2 [Example 107, 6-{[2-Chloro-3-(trifluoromethyl)phenyl]carbonyl}-2-methyl-3-pyridin-3-yl-4,5,6,7-tetrahydro-2H-pyrazolo[3,4-c]pyridine]
The “PBMC 1 μM (% control)” value of the first is lower: 4.3 % control for the first, 24.7 % control for the second.

Going from `O=C(c1cccc(Cl)c1Cl)N1CCc2c(-c3ccccc3)n[nH]c2C1` [Example 100, 6-[(2,3-Dichlorophenyl)carbonyl]-3-phenyl-4,5,6,7-tetrahydro-1H-pyrazolo[3,4-c]pyridine] to `Cn1nc2c(c1-c1ccccc1)CCN(C(=O)c1cccc(Cl)c1Cl)C2` [Example 102, 6-[(2,3-Dichlorophenyl)carbonyl]-2-methyl-3-phenyl-4,5,6,7-tetrahydro-2H-pyrazolo[3,4-c]pyridine], the “PBMC 1 μM (% control)” value rises from 9.2 % control to 18.0 % control.

First: Cn1nc2c(c1-c1ccc(F)cc1)CCN(C(=O)c1cccc(C(F)(F)F)c1Cl)C2 [Example 105, 6-{[2-Chloro-3-(trifluoromethyl)phenyl]carbonyl}-3-(4-fluorophenyl)-2-methyl-4,5,6,7-tetrahydro-2H-pyrazolo[3,4-c]pyridine]
Second: Cn1nc2c(c1-c1cccnc1)CCN(C(=O)c1cccc(Cl)c1Cl)C2 [Example 111, 6-[(2,3-Dichlorophenyl)carbonyl]-2-methyl-3-pyridin-3-yl-4,5,6,7-tetrahydro-2H-pyrazolo[3,4-c]pyridine]
The “PBMC 1 μM (% control)” value of the first is higher: 51.0 % control for the first, 15.7 % control for the second.

For `COc1ccccc1-n1nnc2c1CCN(C(=O)c1cccc(C(F)(F)F)c1F)C2` [Example 124, (2-Fluoro-3-(trifluoromethyl)phenyl)(1-(2-methoxyphenyl)-6,7-dihydro-1H-[1,2,3]triazolo[4,5-c]pyridin-5(4H)-yl)methanone], the “PBMC 1 μM (% control)” value was 94.7 % control.

same assay, conditions: compound 10 μM, LPS 30 ng/ml, Bz-ATP 0.5 mM

Going from `O=C(c1cccc(C(F)(F)F)c1Cl)N1CCc2[nH]cnc2C1C(F)(F)F` (stereo not shown) [Example 39, 5-{[2-Chloro-3-(trifluoromethyl)phenyl]carbonyl}-4-(trifluoromethyl)-4,5,6,7-tetrahydro-1H-imidazo[4,5-c]pyridine] to `CC1c2nnn(-c3cc[nH]n3)c2CCN1C(=O)c1cccc(C(F)(F)F)c1Cl` (stereo not shown) [Example 85, 5-{[2-Chloro-3-(trifluoromethyl)phenyl]carbonyl}-4-methyl-1-(1H-pyrazol-3-yl)-4,5,6,7-tetrahydro-1H-[1,2,3]triazolo[4,5-c]pyridine], the “PBMC 10 μM (% control)” value falls from 112.0 % control to 24.7 % control.

Compared with `O=C(c1cccc(C(F)(F)F)c1Cl)N1CCc2c(nnn2-c2ncccn2)C1` [Example 65, 5-{[2-Chloro-3-(trifluoromethyl)phenyl]carbonyl}-1-pyrimidin-2-yl-4,5,6,7-tetrahydro-1H-[1,2,3]triazolo[4,5-c]pyridine], `CC1c2nnn(-c3ncccn3)c2CCN1C(=O)c1cccc(C(F)(F)F)c1Cl` (stereo not shown) [Example 80, 5-{[2-Chloro-3-(trifluoromethyl)phenyl]carbonyl}-4-methyl-1-pyrimidin-2-yl-4,5,6,7-tetrahydro-1H-[1,2,3]triazolo[4,5-c]pyridine] is lower in “PBMC 10 μM (% control)” value: 5.8 % control for the first, 4.6 % control for the second.

Going from `CC1Cc2c(nnn2-c2ccccn2)CN1C(=O)c1cccc(C(F)(F)F)c1Cl` (stereo not shown) [Example 116, 5-{[2-Chloro-3-(trifluoromethyl)phenyl]carbonyl}-6-methyl-1-pyridin-2-yl-4,5,6,7-tetrahydro-1H-[1,2,3]triazolo[4,5-c]pyridine] to `CC1Cc2c(nnn2-c2cnccn2)CN1C(=O)c1cccc(C(F)(F)F)c1Cl` (stereo not shown) [Example 209, 5-{[2-Chloro-3-(trifluoromethyl)phenyl]carbonyl}-6-methyl-1-pyrazin-2-yl-4,5,6,7-tetrahydro-1H-[1,2,3]triazolo[4,5-c]pyridine], the “PBMC 10 μM (% control)” value falls from 45.3 % control to −1.0 % control.

Going from `CC1Cc2c(nnn2-c2ncccc2F)CN1C(=O)c1cccc(C(F)(F)F)c1Cl` (stereo not shown) [Example 122, 5-{[2-Chloro-3-(trifluoromethyl)phenyl]carbonyl}-1-(3-fluoropyridin-2-yl)-6-methyl-4,5,6,7-tetrahydro-1H-[1,2,3]triazolo[4,5-c]pyridine] to `CC1Cc2c(nnn2-c2ncccc2F)CN1C(=O)c1cccc(Cl)c1Cl` (stereo not shown) [Example 161, (2,3-Dichlorophenyl)(1-(3-fluoropyridin-2-yl)-6-methyl-6,7-dihydro-1H-[1,2,3]triazolo[4,5-c]pyridin-5(4H)-yl)methanone], the “PBMC 10 μM (% control)” value falls from 0.2 % control to −0.9 % control.

First: CC1c2nnn(-c3ncc(F)cn3)c2CCN1C(=O)c1cccc(C(F)(F)F)c1Cl (stereo not shown) [Example 153, (2-Chloro-3-(trifluoromethyl)phenyl)(1-(5-fluoropyrimidin-2-yl)-4-methyl-6,7-dihydro-1H-[1,2,3]triazolo[4,5-c]pyridin-5(4H)-yl)methanone]
Second: CC1c2nnn(-c3ncc(F)cn3)c2CCN1C(=O)c1cccc(C(F)(F)F)c1F (stereo not shown) [Example 175, (2-fluoro-3-(trifluoromethyl)phenyl)(1-(5-fluoropyrimidin-2-yl)-4-methyl-6,7-dihydro-1H-[1,2,3]triazolo[4,5-c]pyridin-5(4H)-yl)methanone]
The “PBMC 10 μM (% control)” value of the first is higher: 28.9 % control for the first, 4.5 % control for the second.

First: CCc1nc2c(n1-c1ccccc1)CCN(C(=O)c1cccc(C(F)(F)F)c1Cl)C2C (stereo not shown) [Example 184, (2-Chloro-3-(trifluoromethyl)phenyl)(2-ethyl-4-methyl-1-phenyl-6,7-dihydro-1H-imidazo[4,5-c]pyridin-5(4H)-yl)methanone]
Second: CC1Cc2c(nnn2-c2cc[nH]n2)CN1C(=O)c1cccc(C(F)(F)F)c1Cl (stereo not shown) [Example 210, (2-chloro-3-(trifluoromethyl)phenyl)(6-methyl-1-(1H-pyrazol-3-yl)-6,7-dihydro-1H-[1,2,3]triazolo[4,5-c]pyridin-5(4H)-yl)methanone]
The “PBMC 10 μM (% control)” value of the first is lower: −0.7 % control for the first, 0.8 % control for the second.

First: CC1Cc2c(nnn2-c2ncc(F)cn2)CN1C(=O)c1cccc(C(F)(F)F)c1Cl (stereo not shown) [Example 200, 5-{[2-Chloro-3-(trifluoromethyl)phenyl]carbonyl}-1-(5-fluoropyrimidin-2-yl)-6-methyl-4,5,6,7-tetrahydro-1H-[1,2,3]triazolo[4,5-c]pyridine]
Second: Cc1c(C(=O)N2Cc3nnn(-c4ncc(F)cn4)c3CC2C)cccc1C(F)(F)F (stereo not shown) [Example 206, 1-(5-Fluoropyrimidin-2-yl)-6-methyl-5-{[2-methyl-3-(trifluoromethyl)phenyl]carbonyl}-4,5,6,7-tetrahydro-1H-[1,2,3]triazolo[4,5-c]pyridine]
The “PBMC 10 μM (% control)” value of the first is higher: 3.2 % control for the first, −1.0 % control for the second.

Going from `CC1Cc2c(nnn2-c2ncc(F)cn2)CN1C(=O)c1cccc(Cl)c1Cl` (stereo not shown) [Example 203, 5-[(2,3-Dichlorophenyl)carbonyl]-1-(5-fluoropyrimidin-2-yl)-6-methyl-4,5,6,7-tetrahydro-1H-[1,2,3]triazolo[4,5-c]pyridine] to `CC1Cc2c(nnn2-c2ncc(F)cn2)CN1C(=O)c1ccc(F)c(Cl)c1Cl` (stereo not shown) [Example 213, 5-[(2,3-Dichloro-4-fluorophenyl)carbonyl]-1-(5-fluoropyrimidin-2-yl)-6-methyl-4,5,6,7-tetrahydro-1H-[1,2,3]triazolo[4,5-c]pyridine], the “PBMC 10 μM (% control)” value falls from 0.6 % control to 0.3 % control.
